Data on five compounds can be found in patent US9670147B2, “Antioxidant inflammation modulators: oleanolic acid derivatives with amino and other modifications at C-17” (REATA PHARMACEUTICALS, INC., priority 2008, dated 2017).

As usually defined, the IC50 is the concentration at which inhibition is half-maximal.

The test system of assay [1] is IFNγ-induced NO production in RAW264.7 macrophages. The assay is described as follows: Suppression of IFNγ-induced NO production (Griess reagent). In kind it is cell-based, mouse. The settings on record: 2 h pre-treatment, then 20 ng/ml IFNγ for 24 hours. In outline: (§1)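 Mouse RAW264.7 macrophages pre-treated 2 h with compound (nM concentrations) or DMSO, then stimulated with 20 ng/ml recombinant mouse IFNγ for 24 h. Nitrite in medium measured by Griess reagent; viability by WST-1.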

The test system of assay [2] is RAW264.7 macrophages. The assay is described as follows: Cell viability, WST-1 reagent. The settings on record: 2 h pre-treatment, then 20 ng/ml IFNγ for 24 hours. In kind it is cell-based, mouse. The method, boiled down:
as §1
On the technique in general: Tetrazolium assays rely on reduction of a dye to a coloured formazan, in cell work by metabolically active cells.

Assay [3] relates to iNOS. The assay is described as follows: Suppression of iNOS mRNA induction, qPCR. The class given is cell-based, mouse. The settings on record: RAW264.7; 2 h pre-treatment, 10 ng/ml IFNγ for 2 hours. How it is done:
FIG. 35. Suppression of iNOS mRNA induction. RAW264.7 mouse macrophages were pre-treated for 2 hours with compounds at the indicated concentrations and subsequently stimulated with 10 ng/ml IFNγ for an additional 2 hours. mRNA levels of iNOS were quantified by qPCR and are shown relative to the vehicle-treated IFNγ-stimulated sample which was normalized to a value of 1. Values are averages of duplicate PCR reactions, each with triplicate wells.
FIG. 36. Suppression of iNOS mRNA induction. RAW264.7 mouse macrophages were pre-treated for 2 hours with compounds at the indicated concentrations and subsequently stimulated with 10 ng/ml IFNγ for an additional 2 hours. mRNA levels of iNOS were quantified by qPCR and are shown relative to the vehicle-treated IFNγ-stimulated sample which was normalized to a value of 1. Values are averages of duplicate PCR reactions, each with triplicate wells.
FIG. 37. Suppression of iNOS mRNA induction. RAW264.7 mouse macrophages were pre-treated for 2 hours with compounds at the indicated concentrations and subsequently stimulated with 10 ng/ml IFNγ for an additional 2 hours. mRNA levels of iNOS were quantified by qPCR and are shown relative to the vehicle-treated IFNγ-stimulated sample which was normalized to a value of 1. Values are averages of duplicate PCR reactions, each with triplicate wells.
RAW264.7 mouse macrophage cells were pre-treated for 2 hours with compounds at the indicated concentrations and subsequently stimulated with 10 ng/ml IFNγ for an additional 2 hours. mRNA levels of iNOS were quantified by qPCR and are shown relative to the vehicle-treated IFNγ-stimulated sample which was normalized to a value of 1. Values are averages of duplicate PCR reactions, each with triplicate wells.
On the technique in general: Real-time PCR tracks product formation cycle by cycle.

In assay [4] the test system is HO-1. The assay is described as follows: Nrf2 target gene induction in MDA-MB-435 cells, qPCR: HO-1. The class given is cell-based, human. The procedure: FIG. 43. Induction of HO-1. FIGS. 43A and 43B: MDA-MB-435 human melanoma cells were treated with vehicle (DMSO) or the indicated compounds and concentrations for 16 hours. HO-1 mRNA levels were quantified using qPCR and were normalized relative to a DMSO-treated sample run in parallel. Values are averages of duplicate wells. FIG. 43C: MDA-MB-435 cells were treated with vehicle (DMSO) or the indicated compounds at 400 nM for 16 hours. HO-1, TrxR1 and actin protein levels were assayed by immunoblotting. Actin served as a loading control.
(§2) FIGS. 44, 46 and 47—Induction of HO-1, TrxR1 and γ-GCS. FIGS. 44A-C, 46A-C, 47A-C: MDA-MB-435 human melanoma cells were treated with vehicle (DMSO) or the indicated compounds (400 nM) for 16 hours. HO-1, thioredoxin reductase-1 (TrxR1), and γ-glutamylcysteine synthetase (γ-GCS) mRNA levels were quantified using qPCR and were normalized relative to a DMSO-treated sample run in parallel. Values are averages of duplicate wells. FIGS. 44D, 46D, 47D: MDA-MB-435 cells were treated with vehicle (DMSO) or the indicated compounds at 400 nM for 16 hours. HO-1, TrxR1 and actin protein levels were assayed by immunoblotting.
(§3) FIG. 45. Induction of HO-1, TrxR1 and γ-GCS. FIGS. 45 A-C: MDA-MB-435 cells were treated with vehicle (DMSO) or the indicated compounds at 160 nM for 16 hours. HO-1, TrxR1, and γ-GCS mRNA levels were quantified by qPCR and were normalized relative to a DMSO-treated sample run in parallel. Values are averages of duplicate wells. FIGS. 44D, 46D, 47D: MDA-MB-435 cells were treated with vehicle (DMSO) or the indicated compounds at 160 nM for 16 hours. HO-1, TrxR1 and actin protein levels were assayed by immunoblotting.
(§4) MDA-MB-435 human melanoma cells were treated with vehicle (DMSO) or the indicated compounds and concentrations for 16 hours. HO-1, thioredoxin reductase-1 (TrxR1), γ-glutamylcysteine synthetase (γ-GCS), and ferritin heavy chain mRNA levels were quantified using qPCR and were normalized relative to a DMSO-treated sample run in parallel. Values are averages of duplicate wells. Primer sequences are as follows.

Assay [5] has as its system TrxR1. The assay is described as follows: Nrf2 target gene induction in MDA-MB-435 cells, qPCR: TrxR1. In kind it is cell-based, human. To be noted: 16 hours. How it is done:
as §2, §3, §4

Assay [6] relates to γ-GCS. The assay is described as follows: Nrf2 target gene induction in MDA-MB-435 cells, qPCR: γ-GCS. In kind it is cell-based, human. How it is done:
as §2, §3, §4

Assay [7] relates to iNOS. The assay is described as follows: iNOS Western blot in RAW264.7 mouse macrophages. In kind it is cell-based. The settings on record: compounds at 300 nM for 2 hours, 24 hour induction by IFNγ, read-out: iNOS suppr. WB. The procedure:
FIGS. 38-40. iNOS Western Blot in RAW264.7 mouse macrophages. Cells were pretreated by compounds at 300 nM for 2 hours, followed by 24 hour induction by IFNγ (20 ng/ml). […]
(In general: A western blot detects proteins with antibodies after separation by electrophoresis.)

Assay [8] concerns NQO1. The assay is described as follows: Nrf2 target gene induction in MDA-MB-435 cells: NQO1. The class given is cell-based, human. To be noted: 250 nM.

Turning to `CCS(=O)(=O)N[C@]12CCC(C)(C)C[C@H]1[C@H]1C(=O)C=C3[C@@]4(C)C=C(C#N)C(=O)C(C)(C)[C@@H]4CC[C@@]3(C)[C@]1(C)CC2` [Compound 63193, N-((4aS,6aR,6bS,8aR,12aS,14aR,14bS)-11-cyano-2,2,6a,6b,9,9,12a-heptamethyl-10,14-dioxo-1,2,3,4,4a,5,6,6a,6b,7,8,8a,9,10,12a,14,14a,14b-octadecahydropicen-4a-yl)ethanesulfonamide], the IC50 is 1.5 nM in assay [1] (Mus musculus) and above 200 nM in assay [2] (Mus musculus). For the same compound, the “iNOS suppr. qPCR” value in assay [3] is listed as around 65%. The HO-1 induction in assay [4] (160 nM, 16 hours) is on record as 6% of induction observed for RTA 402. Besides, in assay [5] (160 nM), the TrxR1 induction is listed as 86% of induction observed for RTA 402. In assay [6] (160 nM, 16 hours), the γ-GCS induction was 55% of induction observed for RTA 402. The inhibition at 0.3 µM in assay [7] is above 90%.
Turning to `CC1(C)CC[C@]2(N)CC[C@]3(C)[C@H](C(=O)C[C@@H]4[C@@]5(C)C=C(C#N)C(=O)C(C)(C)[C@@H]5CC[C@]43C)[C@@H]2C1` [Compound 63198, (4aR,6aR,6bR,8aS,12aS,12bR,14aR,14bR)-8a-amino-4,4,6a,6b,11,11,14b-heptamethyl-3,13-dioxo-3,4,4a,5,6,6a,6b,7,8,8a,9,10,11,12,12a,12b,13,14,14a,14b-icosahydropicene-2-carbonitrile], the IC50 is around 30 nM in assay [1] (Mus musculus) and above 200 nM in assay [2] (Mus musculus). For the same compound, the NQO1 induction in assay [8] is 1.8 fold induction above DMSO control. In addition, the HO-1 induction in assay [4] (250 nM) is given as 1.4 fold induction above DMSO control; in assay [4] (400 nM, 16 hours), 2% of induction observed for RTA 402. In addition, in assay [5] (400 nM), the TrxR1 induction is 71% of induction observed for RTA 402. In addition, the γ-GCS induction in assay [6] (250 nM) was 2.8 fold induction above DMSO control.
For the compound `CC1(C)CC[C@]2(O)CC[C@]3(C)[C@H](C(=O)CC4[C@@]5(C)C=C(C#N)C(=O)C(C)(C)[C@@H]5CC[C@]43C)[C@@H]2C1` (stereo partly drawn) [Compound 63208, (4aR,6aR,6bR,8aS,12aS,12bR,14bR)-8a-hydroxy-4,4,6a,6b,11,11,14b-heptamethyl-3,13-dioxo-3,4,4a,5,6,6a,6b,7,8,8a,9,10,11,12,12a,12b,13,14,14a,14b-icosahydropicene-2-carbonitrile], the NQO1 induction in assay [8] was 1.7 fold induction above DMSO control. The HO-1 induction in assay [4] (250 nM) is listed as 1.1 fold induction above DMSO control. The γ-GCS induction in assay [6] (250 nM) is recorded as 3.2 fold induction above DMSO control.
For the compound `CC1(C)CC[C@]2(NS(=O)(=O)C3CC3)CC[C@]3(C)[C@H](C(=O)C=C4[C@@]5(C)C=C(C#N)C(=O)C(C)(C)[C@@H]5CC[C@]43C)[C@@H]2C1` [Compound 63243, N-((4aS,6aR,6bS,8aR,12aS,14aR,14bS)-11-cyano-2,2,6a,6b,9,9,12a-heptamethyl-10,14-dioxo-1,2,3,4,4a,5,6,6a,6b,7,8,8a,9,10,12a,14,14a,14b-octadecahydropicen-4a-yl)cyclopropanesulfonamide], the IC50 was 2.9 nM in assay [1] (Mus musculus) and 150 nM in assay [2] (Mus musculus). Further, in assay [3], the “iNOS suppr. qPCR” value turned out to be 50%. In addition, in assay [4] (160 nM, 16 hours), the HO-1 induction was 25% of induction observed for RTA 402. Further, the TrxR1 induction in assay [5] (160 nM) is reported as 57% of induction observed for RTA 402. In assay [6] (160 nM, 16 hours), the γ-GCS induction is given as 36% of induction observed for RTA 402. Also, the inhibition at 0.3 µM in assay [7] is around 90%.
Consider “N-((4aS,6aR,6bR,8aR,12aR,12bR,14aR,14bS)-11-cyano-2,2,6a,6b,9,9,12a-heptamethyl-10,14-dioxo-1,2,3,4,4a,5,6,6a,6b,7,8,8a,9,10,12a,12b,13,14,14a,14b-icosahydropicen-4a-yl)-2,2,2-trifluoroethanesulfonamide [Compound 63254]”, for which the IC50 in assay [1] was around 25 nM; in assay [2] it was above 200 nM. Moreover, the NQO1 induction in assay [8] was 1.7 fold induction above DMSO control. Besides, the HO-1 induction in assay [4] (250 nM) is given as 2 fold induction above DMSO control. Moreover, the γ-GCS induction in assay [6] (250 nM) is recorded as 3 fold induction above DMSO control.
